Assay results taken from PubChem BioAssay (NCI).
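Growth conditions: 96-well plates. Treatment: test compound, 48 hours, 5 concentrations. Analysis: linear interpolation between bracketing concentrations; unreached endpoints set to highest concentration. GI50 = concentration required for 50% inhibition of growth. TGI denotes the concentration required for complete inhibition of growth.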

Experiments:
Assay in all cases: NCI anticancer screen, dose series, 48 h
COLO 205 colon = tested on: COLO 205 colon
UACC-62 melanoma = tested on: UACC-62 melanoma
HOP-92 NSCLC = tested on: HOP-92 NSCLC
SNB-19 CNS = tested on: SNB-19 CNS
NCI-H23 lung = tested on: NCI-H23 lung
OVCAR-5 ovarian = tested on: OVCAR-5 ovarian
EKVX NSCLC = tested on: EKVX NSCLC
HOP-62 NSCLC = tested on: HOP-62 NSCLC
M14 melanoma = tested on: M14 melanoma
NCI/ADR-RES ovarian = tested on: NCI/ADR-RES ovarian

| Structure (SMILES) | TGI (COLO 205 colon) | TGI (UACC-62 melanoma) | TGI (HOP-92 NSCLC) | TGI (SNB-19 CNS) | TGI (NCI-H23 lung) | TGI (OVCAR-5 ovarian) | TGI (EKVX NSCLC) | TGI (HOP-62 NSCLC) | TGI (M14 melanoma) | GI50 (COLO 205 colon) | GI50 (UACC-62 melanoma) | GI50 (HOP-92 NSCLC) | GI50 (SNB-19 CNS) | GI50 (OVCAR-5 ovarian) | GI50 (EKVX NSCLC) | GI50 (NCI/ADR-RES ovarian) | TGI (NCI/ADR-RES ovarian) | GI50 (M14 melanoma) | GI50 (NCI-H23 lung) | GI50 (HOP-62 NSCLC) |
| --- | --- | --- | --- | --- | --- | --- | --- | --- | --- | --- | --- | --- | --- | --- | --- | --- | --- | --- | --- | --- |
| Cc1[nH]c(=O)nc(CC(O)(c2ccccc2)c2ccccc2)c1-c1ccccc1 | > 100 µM | > 100 µM | > 100 µM | > 100 µM | > 100 µM | > 100 µM | > 100 µM | > 100 µM | > 100 µM | – | – | – | – | – | – | – | – | – | – | – |
| CC(C)=CCC/C(C)=C/CC/C(=C/COP(=O)(OCc1ccc([N+](=O)[O-])o1)N(C)CCCCCl)CC=C(C)C (stereo not given) | 66.4 µM | 32.5 µM | 36 µM | 41.9 µM | – | 24.3 µM | 19.8 µM | – | 10.2 µM | 8.01 µM | 14.3 µM | 16.5 µM | 19.5 µM | 10.6 µM | 3.73 µM | 6.11 µM | 21.3 µM | 2.62 µM | – | – |
| CCOC(=O)N1C/C(=C/c2ccc(OC)cc2)C(=O)/C(=C/c2ccc(OC)cc2)C1 | 5.28 µM | 5.4 µM | > 56.3 µM | > 35 µM | 20.2 µM | 21.6 µM | – | 5.11 µM | 5.2 µM | 2.18 µM | 1.92 µM | 4.97 µM | 3.87 µM | 4.23 µM | – | 3.35 µM | > 100 µM | 2.11 µM | 3.26 µM | 2.1 µM |
| CC1CCCN(CC(O)CN2CCCc3ccccc32)C1 (stereo not given) | > 100 µM | > 100 µM | – | > 100 µM | > 100 µM | > 100 µM | > 100 µM | > 100 µM | > 100 µM | – | – | – | – | – | – | – | > 100 µM | – | – | – |
| CC(C)CC(CNC(Cc1ccc(Cl)cc1)C(N)=O)NC(=O)C(Cc1cnc[nH]1)NC(=O)CNC(=O)C(NC(=O)C(C)NC(=O)C(Cc1c[nH]c2ccccc12)NC(=O)C(CCC(=O)O)NC(=O)C(N)Cc1ccccc1)C(C)C (stereo not given) | > 133 µM | > 133 µM | < 0.0133 µM | > 133 µM | > 133 µM | – | > 133 µM | > 133 µM | – | – | – | – | – | – | – | – | – | – | – | – |
| N#CCC(=O)N/N=C1/C(=O)NC(=O)C(=O)C1c1nc2ccccc2s1 (stereo not given) | > 100 µM | > 100 µM | > 100 µM | > 100 µM | > 100 µM | > 100 µM | > 100 µM | > 100 µM | > 100 µM | – | – | – | – | – | – | – | – | – | – | – |
| CCOC(OCC)c1ccc(/C=C/c2cc(OC)c(OC)c(OC)c2)cc1 | 33.5 µM | 33.2 µM | 64.7 µM | > 100 µM | – | 55.7 µM | > 100 µM | 56.6 µM | 31.9 µM | – | – | – | – | – | – | – | – | – | – | – |
| COC(=O)C1=C(c2cc(OC)c(OC)c(OC)c2)OC(c2cc(OC)c(OC)c(OC)c2)C1COC(C)=O (stereo not given) | 33.4 µM | > 100 µM | > 100 µM | > 100 µM | > 100 µM | > 100 µM | > 100 µM | > 100 µM | > 100 µM | – | – | – | – | – | – | – | – | – | – | – |
| O=C1NC(=O)C2(CCC(O)C2)c2cc[n+]([O-])cc21 (stereo not given) | > 100 µM | > 100 µM | > 100 µM | > 100 µM | > 100 µM | > 100 µM | > 100 µM | > 100 µM | > 100 µM | – | – | – | – | – | – | – | – | – | – | – |
| COc1ccc(/C=C/c2nc(=S)[nH][nH]2)cc1 | – | > 100 µM | > 100 µM | > 100 µM | > 100 µM | > 100 µM | > 100 µM | – | > 100 µM | – | – | – | – | – | – | – | – | – | – | – |
| COc1cc(OC)c(OC)cc1/C=C1\C=Cc2ccccc21 | > 100 µM | – | – | – | > 100 µM | > 100 µM | > 100 µM | 37.5 µM | – | – | – | – | – | – | – | – | > 100 µM | – | – | – |
| O=C(CCC(=O)N/N=C/c1ccccc1O)N/N=C/c1ccccc1O | > 100 µM | > 100 µM | 56.7 µM | > 100 µM | > 100 µM | > 100 µM | 56.4 µM | – | – | – | – | – | – | – | – | – | – | – | – | – |
| CCc1ccc(/C(C)=N/NC(N)=S)cc1 | > 100 µM | > 100 µM | > 100 µM | > 100 µM | > 100 µM | 72.3 µM | > 100 µM | > 100 µM | > 100 µM | – | – | – | – | – | – | – | – | – | – | – |
| COC(=O)[C@@H](Cc1c[nH]c2ccccc12)NC(=O)/C=C/c1ccccc1 | 50.3 µM | > 100 µM | 4.29 µM | > 100 µM | > 100 µM | > 100 µM | – | > 100 µM | > 100 µM | 12.4 µM | 3.97 µM | 0.235 µM | 7.31 µM | 5.43 µM | – | 2.53 µM | > 100 µM | 3.05 µM | 4.32 µM | 3.62 µM |
| NC1=NC2(O)c3ccccc3C(=O)C2(O)N1 (stereo not given) | > 100 µM | > 100 µM | > 100 µM | > 100 µM | > 100 µM | > 100 µM | > 100 µM | > 100 µM | > 100 µM | – | – | – | – | – | – | – | – | – | – | – |
| COC1(OC)CC2C(=O)N(Cc3ccccc3)C1CC2S(=O)(=O)c1ccccc1 (stereo not given) | > 100 µM | > 100 µM | – | > 100 µM | > 100 µM | – | > 100 µM | > 100 µM | > 100 µM | – | – | – | – | – | – | – | – | – | – | – |
| COc1ccc(/C(Cl)=C(\C=O)c2ccc(Br)cc2)cc1OC | > 100 µM | > 100 µM | 72.6 µM | > 100 µM | > 100 µM | > 100 µM | > 100 µM | > 100 µM | > 100 µM | – | – | – | – | – | – | – | – | – | – | – |
| Cc1ccc(S(=O)(=O)NC(CCC(=O)Nc2ccccc2)C(=O)Nc2ccccc2)cc1 (stereo not given) | – | 1.12 µM | 0.544 µM | – | – | – | 2.3 µM | – | 3.62 µM | – | 0.172 µM | 0.157 µM | – | – | 0.401 µM | 0.475 µM | 2.19 µM | 0.404 µM | – | – |
| Fc1ccc(F)c(C2SCc3nc4ccccc4n32)c1 (stereo not given) | > 100 µM | > 100 µM | > 100 µM | > 100 µM | > 100 µM | > 100 µM | > 100 µM | > 100 µM | > 100 µM | – | – | – | – | – | – | – | – | – | – | – |
| COc1cc2nc(-c3ccc(-n4cncc4-c4ccc(N)cc4)cc3)sc2c(OC)c1OC | – | > 100 µM | 4.08 µM | 51.1 µM | 23.7 µM | > 100 µM | 75.9 µM | – | > 100 µM | – | 5.45 µM | 0.446 µM | 12.3 µM | 34.3 µM | 2.49 µM | 1.61 µM | 6.43 µM | 2.1 µM | 3.87 µM | – |
| Cc1c(C2Cc3ccccc3N2C(=O)/C=C\C(=O)O)c2ccccc2n1C (stereo not given) | 32.1 µM | 35.8 µM | 36.3 µM | 37.2 µM | 62.9 µM | > 100 µM | 72.9 µM | 57.1 µM | 76.2 µM | – | – | – | – | – | – | – | – | – | – | – |
